Values joined by “and” are separate entries in the source; they are usually repeats but may differ in a detail not shown here. Equal values may be shown once. Where a name gives a salt, the structure may show the parent alone.
What was measured:
S1R [1] = molecular target: T1, S1R (Rattus norvegicus, UniProt Q9R0C9); experiment: S1R radioligand binding assay ([3H]-(+)-pentazocine, rat liver homogenates); settings: mean ± SD of at least two experiments in duplicate
T1 construct: liver homogenates from male Sprague Dawley rats; from tissue; host or cells: rat liver homogenate (male Sprague Dawley)
T1 sequence (Q9R0C9 whole entry): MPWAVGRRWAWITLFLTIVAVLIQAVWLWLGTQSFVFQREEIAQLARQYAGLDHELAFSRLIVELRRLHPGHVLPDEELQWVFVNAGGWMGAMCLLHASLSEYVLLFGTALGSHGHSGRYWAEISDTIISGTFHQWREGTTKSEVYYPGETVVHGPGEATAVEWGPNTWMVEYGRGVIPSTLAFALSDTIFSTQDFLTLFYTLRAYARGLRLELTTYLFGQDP

S2R = molecular target: T2, S2R (Rattus norvegicus, UniProt Q5U3Y7); experiment: S2R radioligand binding assay ([3H]DTG with (+)-pentazocine mask, rat liver homogenates)
T2 construct: liver homogenates from male Sprague Dawley rats; from tissue; host or cells: rat liver homogenate (male Sprague Dawley)
T2 sequence (Q5U3Y7 1-176): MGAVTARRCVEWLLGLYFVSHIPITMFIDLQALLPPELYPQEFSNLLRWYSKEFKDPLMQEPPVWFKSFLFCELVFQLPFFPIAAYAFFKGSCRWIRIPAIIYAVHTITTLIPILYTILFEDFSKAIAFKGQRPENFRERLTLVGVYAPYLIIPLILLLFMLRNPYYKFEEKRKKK

[2] = tested on: human corneal epithelial cells (HCE); experiment: LDH cytotoxicity assay in HCE cells; format: cell-based; settings: 100 μM, 20 h incubation
Method: The permeability of cellular membranes following the exposures was determined by measuring the amount of released LDH (lactate dehydrogenase) enzyme from HCE cells. The commercial CytoTox 96 kit (Promega, Fitchburg, WI, USA) was used according to the manufacturer’s instructions. To measure maximal LDH release, 10 μL of 10× lysis solution was added to control wells 45 min before adding the CytoTox 96 reagent. To measure the amount of released LDH, 50 μL of each well was transferred to a fresh 96-well plate and 50 μL of CytoTox 96 reagent was added followed by a 30 min incubation period. Finally, 50 μL of stop solution was added and absorbance was recorded at 490 nm (Synergy H1 Hybrid Reader, BioTek, Winooski, VT, USA). Absorbance values were corrected by background values, and the percentage of LDH release was calculated using the following formula: 100 × experimental LDH release optical density (OD)/maximum LDH release OD.

[3] = tested on: capsaicin-induced mechanical hypersensitivity (allodynia) in mice; experiment: Capsaicin-induced mechanical hypersensitivity (allodynia) in mice; format: in vivo; settings: for response latency to mechanical stimulation: 40 mg/kg s.c., non-sensitized 44.19 ± 2.59 s, capsaicin + solvent 13.51 ± 1.93 s, mean ± SEM; for antiallodynic effect on capsaicin-induced allodynia (in words): 30 min before capsaicin; for dose of maximum antiallodynic effect: capsaicin-induced mechanical hypersensitivity
Method: We tested the effect of several of our compounds in capsaicin-induced mechanical hypersensitivity (allodynia) in mice (Figure 5). The increase in pain sensitivity in the area surrounding capsaicin injection results from central sensitization, and this process plays a pivotal role in chronic pain development and maintenance.[29]
Experiments were performed in female WT-CD1 mice (Charles River, Barcelona, Spain) weighing 25–30 g. […] The behavioral test was conducted during the light phase (from 9:00 to 15:00 h) and randomly throughout the estrous cycle.
Drug solutions were prepared immediately before the start of the experiments and injected s.c. in a volume of 5 mL/kg into the interscapular area. […] To test for the effects of PRE-084 on the antiallodynia induced by the other drugs, it was administered 5 min before the latter. Capsaicin was dissolved in 1% DMSO in physiological sterile saline to a concentration of 0.05 μg/μL. […] Control animals were injected with the same volume of the vehicle of capsaicin.
Animals were placed for 2 h in individual black-walled test compartments, which were situated on an elevated mesh-bottom platform with a 0.5 cm^2 grid to provide access to the ventral surface of the hind paws. […] Briefly, a nonflexible filament (0.5 mm diameter) was electronically driven into the ventral side of the right hind paw at least 5 mm away from the site of the injection toward the fingers. The intensity of the stimulation was set at 0.5g force.[30] When a paw withdrawal response occurred, the stimulus was automatically terminated, and the response latency was recorded. The filament was applied three times, separated by intervals of 0.5 min. The mean value of the three trials was considered the withdrawal latency time of the animal. A cutoff time of 50 s was used in each trial.

[4] = tested on: human corneal epithelial cells (HCE); experiment: MTT cell viability assay in HCE cells; settings: 20 h incubation; for HCE cells cell viability reduction (MTT): 100 μM
[5] = Water solubility (UHPLC-PDA); format: physicochemical; settings: free base, ultrapure water, rt
hERG = hERG (Homo sapiens, UniProt Q12809); experiment: hERG activity (Qube APC electrophysiology, CHO-K1 cells expressing human ERG); format: cell-based; settings: CHO-K1 cells that express human ERG, six concentrations 10^-10 to 10^-5 M
Chain of hERG (Q12809 whole entry): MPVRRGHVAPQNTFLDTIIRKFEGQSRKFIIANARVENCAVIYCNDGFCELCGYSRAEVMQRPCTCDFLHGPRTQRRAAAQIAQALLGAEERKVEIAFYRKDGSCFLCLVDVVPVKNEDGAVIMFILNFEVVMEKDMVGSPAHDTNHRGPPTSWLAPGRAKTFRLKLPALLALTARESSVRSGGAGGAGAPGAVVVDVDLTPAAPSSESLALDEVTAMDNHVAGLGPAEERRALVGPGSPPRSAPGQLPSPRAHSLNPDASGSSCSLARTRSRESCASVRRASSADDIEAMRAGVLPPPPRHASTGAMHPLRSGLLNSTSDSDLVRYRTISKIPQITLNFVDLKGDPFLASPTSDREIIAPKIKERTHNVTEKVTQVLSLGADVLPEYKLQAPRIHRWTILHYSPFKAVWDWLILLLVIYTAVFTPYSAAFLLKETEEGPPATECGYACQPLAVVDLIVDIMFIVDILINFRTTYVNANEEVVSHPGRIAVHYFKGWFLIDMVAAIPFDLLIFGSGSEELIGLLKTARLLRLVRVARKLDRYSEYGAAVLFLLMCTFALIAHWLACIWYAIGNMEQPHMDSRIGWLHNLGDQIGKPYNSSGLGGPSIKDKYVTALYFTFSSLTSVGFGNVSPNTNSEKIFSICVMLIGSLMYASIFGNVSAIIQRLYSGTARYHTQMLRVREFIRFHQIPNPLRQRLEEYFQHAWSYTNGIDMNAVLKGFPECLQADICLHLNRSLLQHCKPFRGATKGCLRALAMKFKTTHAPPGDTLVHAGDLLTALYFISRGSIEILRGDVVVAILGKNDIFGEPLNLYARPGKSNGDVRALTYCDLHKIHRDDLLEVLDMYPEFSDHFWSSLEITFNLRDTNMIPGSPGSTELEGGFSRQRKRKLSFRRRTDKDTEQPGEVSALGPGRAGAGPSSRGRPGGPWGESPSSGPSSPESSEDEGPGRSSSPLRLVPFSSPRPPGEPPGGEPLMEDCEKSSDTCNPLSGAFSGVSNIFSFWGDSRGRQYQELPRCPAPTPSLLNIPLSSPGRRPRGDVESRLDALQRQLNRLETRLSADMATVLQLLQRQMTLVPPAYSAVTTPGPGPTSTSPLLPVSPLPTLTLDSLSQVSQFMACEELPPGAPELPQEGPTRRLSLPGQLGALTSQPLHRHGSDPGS

Human plasma stability = format: in vitro ADME; settings: pH 7.4, 37 °C, read-out: plasma stability T1/2
[6] = Metabolic stability in mouse liver microsomes; format: in vitro ADME
Method: (§1) Moreover, in vitro metabolic studies were performed using mouse and human liver microsomes. Following incubation at 0.1 μM with the liver microsomes for 1 h, reaction samples were analyzed by LC–MS/MS at different time points (0, 15, 30, 45, 60 min).
(§2) In vitro metabolic stability studies were performed by Eurofins Cerep Quality Control Unit (France) using mouse and human liver microsomes fractions in accordance with their validation Standard Operating Procedure.

[7] = molecular target: T3, human serotonin 5-HT2A receptor (Homo sapiens, UniProt P28223); experiment: 5-HT2A receptor binding ([3H]Ketanserin)
T3 construct: host or cells: CHO-K1 cells
T3 sequence (P28223 whole entry): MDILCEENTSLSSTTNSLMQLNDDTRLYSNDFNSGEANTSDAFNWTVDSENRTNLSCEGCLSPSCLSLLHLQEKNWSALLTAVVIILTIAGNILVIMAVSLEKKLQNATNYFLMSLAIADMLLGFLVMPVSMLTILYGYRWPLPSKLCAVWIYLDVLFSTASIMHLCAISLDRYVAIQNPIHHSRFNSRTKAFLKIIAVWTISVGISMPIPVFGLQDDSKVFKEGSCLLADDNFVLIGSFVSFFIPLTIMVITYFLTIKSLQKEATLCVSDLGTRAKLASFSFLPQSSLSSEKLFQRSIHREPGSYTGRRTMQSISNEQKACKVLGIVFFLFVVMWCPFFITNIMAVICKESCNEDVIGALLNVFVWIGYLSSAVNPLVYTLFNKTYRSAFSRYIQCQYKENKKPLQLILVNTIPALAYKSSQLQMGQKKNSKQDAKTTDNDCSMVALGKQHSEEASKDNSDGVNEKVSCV

mice = experiment: Rotarod test (motor coordination); format: in vivo; settings: 9d 1.25 mg/kg s.c., pregabalin 60 mg/kg s.c.; 45-240 min after administration
Method: The rotarod test is the most standard test to assess motor function and coordination in rodents. It consists of a rotating rod where the animal is placed, and the latency to fall is measured. Drugs that negatively affect motor coordination decrease the latency to fall.[2]
Motor coordination was assessed with an accelerating rotarod (Cibertec, Madrid, Spain), as previously described.[34] Briefly, mice were required to walk against the motion of an elevated rotating drum at increasing speed (4–80 rpm over 5 min), and the latency to fall was recorded with a cut-off time of 300 s. Mice were given three training sessions 24 h before drug testing. On the day of the test, rotarod latencies were measured immediately before the drug or vehicle (saline 5% DMSO) was administered (time 0) and several times (45, 90, 150, and 240 min) after the s.c. drug administration. As a comparison drug, we used pregabalin (60 mg/kg, s.c.), which has been reported to impair rotarod performance.[34]

S1R [8] = molecular target: T1, S1R; experiment: S1R functional assay (radioligand binding with/without phenytoin, rat liver)
[9] = molecular target: T4, human serotonin transporter (Homo sapiens, UniProt P31645); experiment: SERT binding ([3H]Paroxetine)
T4 construct: host or cells: HEK-293 cells
T4 sequence (P31645 whole entry): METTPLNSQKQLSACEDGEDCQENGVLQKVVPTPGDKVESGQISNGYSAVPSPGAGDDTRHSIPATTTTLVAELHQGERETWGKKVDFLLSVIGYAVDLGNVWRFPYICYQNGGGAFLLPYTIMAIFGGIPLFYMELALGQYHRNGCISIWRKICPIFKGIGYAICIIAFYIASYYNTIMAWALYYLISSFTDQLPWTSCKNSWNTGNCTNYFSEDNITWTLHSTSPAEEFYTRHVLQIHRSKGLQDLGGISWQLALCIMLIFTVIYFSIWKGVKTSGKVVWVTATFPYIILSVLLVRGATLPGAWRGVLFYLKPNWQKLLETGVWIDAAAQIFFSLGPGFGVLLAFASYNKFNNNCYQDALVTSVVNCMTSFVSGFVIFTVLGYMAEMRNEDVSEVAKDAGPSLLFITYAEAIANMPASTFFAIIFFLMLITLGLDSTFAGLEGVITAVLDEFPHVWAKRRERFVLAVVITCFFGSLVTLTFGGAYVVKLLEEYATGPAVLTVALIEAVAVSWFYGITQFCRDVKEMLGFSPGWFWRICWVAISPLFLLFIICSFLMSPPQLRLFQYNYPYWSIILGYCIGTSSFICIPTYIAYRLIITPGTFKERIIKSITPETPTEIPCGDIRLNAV

[10] = Metabolic stability in human liver microsomes; format: in vitro ADME
Method: as §1, §2

[11] = Chemical stability in phosphate buffer pH 7.4; format: physicochemical; settings: phosphate buffer pH 7.4, 37 °C; read-out: chemical stability T1/2

Structure (SMILES): CC(C)(C)OC(=O)N1CCC2(CCN(c3ccccc3)C2)C1 (stereo not shown) [6a, tert-Butyl-7-phenyl-2,7-diazaspiro[4.4]nonane-2-carboxylate]
- Ki (S1R [1]): 40.7 ± 0.95 nM
- Ki (S2R): 76.1 ± 1.2 nM

Structure (SMILES): c1ccc(CCN2CCC3(CCN(c4ccccc4)C3)C2)cc1 (stereo not shown) [8a, 2-Phenethyl-7-phenyl-2,7-diazaspiro[4.4]nonane]
- HCE cells cytotoxicity (LDH release) [2]: 16%
- response latency to mechanical stimulation [3]: 30.28 ± 5.02 s
- antiallodynic effect on capsaicin-induced allodynia (in words) ([3]; s.c.): dose-dependent antiallodynic effects
- dose of maximum antiallodynic effect ([3]; s.c.): 20 mg/kg
- HCE cells cell viability reduction (MTT) [4]: 50%

Structure (SMILES): O=[N+]([O-])c1ccc(N2CCC3(CCN(CCc4ccccc4)C3)C2)cc1 (stereo not shown) [9a, 2-(4-Nitrophenyl)-7-phenethyl-2,7-diazaspiro[4.4]nonane]
- HCE cells cytotoxicity (LDH release) [2]: 23%
- dose from which significant antiallodynic effects are seen ([3]; s.c.): 5 mg/kg
- antiallodynic effect on capsaicin-induced allodynia (in words) ([3]; s.c.): dose-dependent and full reversal of capsaicin-induced allodynia
- dose of maximum antiallodynic effect ([3]; s.c.): 10 mg/kg

Structure (SMILES): N#Cc1ccc(N2CCC3(CCN(CCc4ccccc4)C3)C2)cc1 (stereo not shown) [9d, 4-(7-Phenethyl-2,7-diazaspiro[4.4]nonan-2-yl)benzonitrile]
- solubility at 24 h [5]: 710 µg/mL and 2140 µM
- IC50 (hERG): 85 nM
- half-life (Human plasma stability): > 24 h
- microsomal CLint at 1 h, 0.1 µM ([6]; 1 h incubation): 124 µL/min/mg
- half-life at 1 h, 0.1 µM ([6]; 1 h incubation, read-out: mouse liver microsomes T1/2): 0.933 h
- half-life at 0.1 μM ([6]; read-out: mouse liver microsomes metabolic half-time (T1/2) (converted)): ~1 h
- inhibition at 1 µM [7]: < 50%
- 5-HT2A % inhibition ([7]; at 1 μM): 42%
- HCE cells cytotoxicity (LDH release) [2]: 18%
- latency to fall from the rotarod (in words) (mice): no change in the latency to fall
- S1R functional profile (S1R [8]): antagonist
- effect of PRE-084 on the antiallodynic effect of the compound ([3]; PRE-084 32 mg/kg s.c. given 5 min before the compound at its dose of maximum effect): fully reversed
- antiallodynic effect on capsaicin-induced allodynia (in words) ([3]; s.c.): dose-dependent and full reversal of capsaicin-induced allodynia
- HCE cells cell viability reduction (MTT) [4]: 28%
- inhibition at 1 µM [9]: < 50%
- SERT % inhibition ([9]; at 1 μM): 39%
- microsomal CLint at 1 h, 0.1 µM ([10]; 1 h incubation): 127 µL/min/mg
- half-life at 1 h, 0.1 µM ([10]; 1 h incubation, read-out: human liver microsomes T1/2): 0.917 h
- half-life at 0.1 μM ([10]; read-out: human liver microsomes metabolic half-time (T1/2) (converted)): ~1 h
- half-life [11]: > 24 h

Structure (SMILES): c1ccc(CCN2CCC3(CCN(CCc4ccccc4)C3)C2)cc1 [14a, 2,7-Diphenethyl-2,7-diazaspiro[4.4]nonane]
- HCE cells cytotoxicity (LDH release) [2]: 13%
- response latency to mechanical stimulation [3]: 26.55 ± 3.55 s
- antiallodynic effect on capsaicin-induced allodynia (in words) ([3]; s.c.): dose-dependent antiallodynic effects
- dose of maximum antiallodynic effect ([3]; s.c.): 20 mg/kg
- HCE cells cell viability reduction (MTT) [4]: 56%

Structure (SMILES): O=C(Cc1ccc(Cl)c(Cl)c1)N1CCC2(CCN(CCc3ccccc3)C2)C1 (stereo not shown) [15a, 2-(3,4-Dichlorophenyl)-1-(7-phenethyl-2,7-diazaspiro[4.4]nonan-2-yl)ethan-1-one]
- Ki (S1R [1]): 7.5 ± 1 nM
- antiallodynic effect on capsaicin-induced allodynia (in words) ([3]; s.c.): dose-dependent and full antiallodynic effect
- dose of maximum antiallodynic effect ([3]; s.c.): 40 mg/kg

Structure (SMILES): CN1CCN(CCc2ccc(Cl)c(Cl)c2)CC1 [BD1063, 1-[2-(3,4-dichlorophenyl)ethyl]-4-methylpiperazine dihydrochloride, reference compound]
- Ki (S1R [1]): 14 ± 2.7 nM

Structure (SMILES): Cl.O=C(OCCN1CCOCC1)C1(c2ccccc2)CCCCC1 [PRE-084, reference compound]
- HCE cells cell viability reduction (MTT) [4]: 58%
- concentration above which cell viability is statistically significantly reduced (MTT) ([4]; HCE cells): above 20 μM

Structure (SMILES): CC(C)C[C@H](CN)CC(=O)O [pregabalin, reference compound]
- latency to fall from the rotarod (in words) (mice): markedly reduced rotarod latencies

From article PMC10461227, “Discovery of AD258 as a Sigma Receptor Ligand with Potent Antiallodynic Activity” (Journal of Medicinal Chemistry, 2023)
